Source: patent US20220323406A1, “METHODS AND COMPOSITIONS FOR DIFFERENTIATING STEM CELLS” (Massachusetts Institute of Technology, priority 2019, published 2022)

Columns and labels:
ENR+CD organoids [1] = test: Primary screen: ATP (CellTiter-Glo 3D, CTG) cell number/viability, 2.5-D 384-well ENR+CD organoids; details: for Dose.FC.CTG (log2 fold change): primary screen;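 on all read-outs here: compounds given at plating and again on day 3 over a 6-day differentiation from ENR+CV stem-cell-enriched precursors, ATP measured on day 6, plate median as control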
ENR+CD organoids [2] = test: Secondary (validation) screen: ATP (CTG) assay, 2.5-D 384-well ENR+CD organoids; assay type: cell-based, mouse; details: 6-day ENR+CD, vs ENR+CD+DMSO
[3] = test system: small intestine crypts (Paneth, stem, goblet cells); test: Animal study: histological quantification of Paneth, Olfm4+ stem and PAS+ goblet cells per crypt; assay type: in vivo, mouse; details: every other day, day 14
Procedure: Following a similar protocol as previously reported for SINE treatment in the context of cancer (Arango et al., 2017; […] Zheng et al., 2014), KPT-330 was administered at a dose 10 mg/kg via oral gavage every other day over a two-week span in C57BL/6 wild-type mice, and body weight was monitored for any clear toxicity. […] Applicants tracked animal weight every other day, and at day 14 collected the proximal and distal thirds of the small intestine for histological quantification of Paneth, stem, and goblet populations (FIG. 26A). […] Samples were prepared for histology by the ‘swiss-roll’ technique, and following staining, were blinded and randomized before manual counting of well-preserved features. […] Applicants additionally quantified the abundance of Olfm4+ stem cells as well as PAS+ goblet cells within the same animals to ascertain whether the effect of SINE treatment was restricted to the Paneth cell compartment (representative images FIG. 30D,E). […] Animal study. 8-10 weeks old wild type C57BL/6NCrl male mice (#027) were purchased from Charles River. Mice were housed under 12 h light/dark cycle and provided food and water ad libitum. 0.01, 0.05, 0.2 or 10 mg/kg of KPT-330 were injected orally using a disposable gavage needle (Cadence Science, #9921) at 10 μL/g weight. KPT-330 was dissolved in DMSO initially and further diluted in sterile PBS containing Pluronic F-68 Non-ionic Surfactant (Gibco, #24040032) and Polyvinylpyrrolidone (PVP, Alfa Aesar, A14315, average M.W. 58,000); the final concentration of DMSO is 2%, Pluronic is 0.5%, and PVP is 0.5%. KPT-330 was administered every other day for two weeks, 7 injections in total (days 0, 2, 4, 6, 8, 10, 12), and mice were sacrificed at day 14. All animal studies are approved by the Committee on Animal Care (CAC) at Massachusetts Institute of Technology. Histology. The small intestine (SI) was collected from mice and divided into three parts. Only proximal and distal SI were kept in PBS, and medial SI was discarded. Each SI was opened longitudinally and washed in PBS. […] Fixed tissues were embedded in paraffin, and 4 μm sections were mounted on slides. For immunohistochemistry, slides were deparaffinized, antigen retrieved using heat-induced epitope retrieval at 97° C. for 20 min using citrate buffer pH 6, and probed with appropriate antibodies followed by DAB staining. For McManus Periodic Acid Schiff (PAS) reaction, slides were deparaffinized, oxidized in periodic acid, and stained with Schiff reagent (Poly Scientific, s272) followed by counterstaining with Harris Hematoxylin. Slides were scanned by Aperio Slide Scanner (Leica) and cells were counted on Aperio eSlide Manager. Slides were randomized before counting, and all cell types were counted in all well-preserved crypts along the longitudinal crypt-villus axis.

[4] = test system: 3D-cultured intestinal organoids (ENR or ENR+CD); test: Lysozyme secretion assay (3D culture), normalized to ATP; assay type: cell-based, mouse
Procedure: Lysozyme assay (3D culture). ISC-enriched organoids cultured in 3D Matrigel with ENRCV media were passaged to 48-well plate in 3D Matrigel with ENRCV. At day zero, media were replaced to ENR or ENRCD with or without indicated compounds, and media were replaced every other day. At day six, cells were washed twice with basal media and treated with carbamylcholine chloride (Sigma, C4382) for 3 hours. Media were collected and lysozyme activity was measured by EnzChek Lysozyme Assay Kit (ThermoFisher, E22013).
Lysozyme secretion assay. ISC-enriched organoids in 3D Matrigel culture were passaged to a 48- or 96-well plate and cultured with ENR or ENR+CD media containing DMSO or each drug for 6 days. DMSO- or drug-containing media were changed every other day. On day 6, cells were washed with basal media twice and treated with basal media with or without 10 μM carbamoylcholine chloride for 3 h in a CO2 incubator at 37° C. A part of the conditioned media was collected and used for lysozyme assay (Thermo, E-22013) following the manufacturer's instruction. The fluorescence was measured using excitation/emission of 485/530 nm. CellTiter-Glo 3D Reagent (Promega, G9681) was added afterward, and the cell culture plate was incubated on an orbital shaker at RT for 30 min to induce cell lysis and to stabilize the luminescent signal. The solution was replaced to a 96-well white microplate, and luminescent signals were measured by a microplate reader (infinite M200, Tecan). The standard curve was prepared by diluting recombinant ATP (Promega, P1132). For both assays, a polynomial cubic curve was fitted to a set of standard data, and each sample value was calculated on the Microsoft Excel.

SMILES: O=C(/C=C\n1cnc(-c2cc(C(F)(F)F)cc(C(F)(F)F)c2)n1)NNc1cnccn1 [KPT-330]
- toxicity in primary screening (ENR+CD organoids [1]; concentrations higher than 160 nM, 6 days): toxic
- Dose.FC.CTG (log2 fold change) (ENR+CD organoids [1]; dose 0.08 uM): 0.210
- Dose.FC.CTG (log2 fold change) (ENR+CD organoids [1]; dose 0.40 uM): −0.657
- Dose.FC.CTG (log2 fold change) (ENR+CD organoids [1]; dose 2.00 uM): −0.894
- Dose.FC.CTG (log2 fold change) (ENR+CD organoids [1]; dose 10.00 uM): −1.876
- Dose.FC.CTG (ENR+CD organoids [2]; 0.02 uM): 0.126 log2 fold change
- Dose.FC.CTG (ENR+CD organoids [2]; 0.04 uM): 0.029 log2 fold change
- Dose.FC.CTG (ENR+CD organoids [2]; 0.08 uM): 0.141 log2 fold change
- Dose.FC.CTG (ENR+CD organoids [2]; […]): 0.120 log2 fold change
- Olfm4+ stem cells, distal small intestine ([3]; 0.01 mg/kg oral): significant increase in Olfm4+ stem cells
- Paneth cells per crypt, distal small intestine ([3]; 0.01 mg/kg oral): significant increases in Paneth abundance
- Paneth cells per crypt, proximal small intestine ([3]; 0.01 mg/kg oral): significant increases in Paneth abundance
- Paneth cells per crypt, proximal small intestine ([3]; 0.2 mg/kg oral): significant increases in Paneth abundance
- PAS+ goblet cell population ([3]; 0.01-0.2 mg/kg oral): did not overserve any significant changes
- enrichment, treatment day 4-6 (by LYZ secretion assay) ([4]; 2-day treatment within 6-day ENR+CD differentiation, read at day 6): minorly enriched
- most effective dose among tested concentrations (LYZ secretion) ([4]; 6 days ENR+CD, basal and Cch-stimulated): 160 nM
- Paneth cell-specific activity (lysozyme assay) in conventional ENR culture ([4]; ENR media, 3-D, 6 days): enhancing Paneth cell-specific activity
- Paneth cell activity (LYZ secretion, basal and Cch-stimulated), dose dependence ([4]; up to 160 nM, 6 days ENR+CD): enhanced Paneth cell activity in a dose-dependent manner
